Test results as given in paper PMC10384011, “m-Terphenylamines, Acting as Selective COX-1 Inhibitors, Block Microglia Inflammatory Response and Exert Neuroprotective Activity” (Molecules, 2023).

Assays:
ovine COX-1 = biological target: T1, ovine COX-1 (Ovis aries, UniProt P05979); test: Cyclooxygenase colorimetric inhibitor screening assay, COX-1; format: biochemical; details: for IC50: ovine COX-1, colorimetric kit, triplicate; for IC50 / inhibition at 50 µM: read-out: oCOX-1; for inhibition at 50 µM: % Inhibition at 50 µM (converted);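 as to all read-outs here: COX peroxidase activity read colorimetrically as oxidized TMPD at 590 nm, arachidonic acid as substrate, inhibitors tested at 0.001–50 µM from DMSO stocks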
T1 construct: purchased Cayman Chemicals 701050
T1 sequence (P05979 25-600): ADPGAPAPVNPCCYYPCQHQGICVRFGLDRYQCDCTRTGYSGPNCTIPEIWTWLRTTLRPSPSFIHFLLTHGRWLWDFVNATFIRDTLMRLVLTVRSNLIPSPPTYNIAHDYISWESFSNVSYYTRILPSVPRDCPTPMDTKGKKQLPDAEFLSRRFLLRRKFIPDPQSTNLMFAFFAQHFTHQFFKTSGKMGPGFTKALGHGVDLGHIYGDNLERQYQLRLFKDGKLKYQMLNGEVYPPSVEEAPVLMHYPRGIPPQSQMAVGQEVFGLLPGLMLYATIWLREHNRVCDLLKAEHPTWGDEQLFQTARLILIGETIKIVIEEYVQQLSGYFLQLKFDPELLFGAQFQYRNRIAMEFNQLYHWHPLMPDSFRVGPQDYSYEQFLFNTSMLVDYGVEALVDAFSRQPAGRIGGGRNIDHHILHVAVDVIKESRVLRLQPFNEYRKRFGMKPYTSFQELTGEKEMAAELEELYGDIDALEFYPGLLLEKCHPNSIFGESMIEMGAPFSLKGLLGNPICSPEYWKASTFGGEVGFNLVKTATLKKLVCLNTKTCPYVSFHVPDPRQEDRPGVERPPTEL
Procedure: (§1) Newly synthesized compounds were evaluated for their ability to inhibit ovine COX-1 or human COX-2 enzyme by measuring the extent (%) of enzyme activity inhibition at different concentrations (0.001, 0.01, 0.1, 1, 10, 50 μM). […] The assay kit measures the peroxidase component of COXs that is assayed colorimetrically by monitoring the appearance of oxidized N,N,N′,N′-tetramethyl-p-phenylenediamine (TMPD) a λ = 590 nm. […] Stock solutions of test compounds were dissolved in DMSO.

human COX-2 = biological target: T2, human COX-2 (Homo sapiens, UniProt P35354); test: Cyclooxygenase colorimetric inhibitor screening assay, COX-2; format: biochemical; details: read-out: hCOX-2; for IC50: human COX-2, colorimetric kit; for inhibition at 50 µM: human COX-2, 50 µM;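 as to all read-outs here: peroxidase activity of COX-2 followed colorimetrically through formation of oxidized TMPD at 590 nm, with arachidonic acid as substrate, compounds tested from 0.001 to 50 µM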
T2 construct: purchased Cayman Chemicals 701050
T2 sequence (P35354 18-604): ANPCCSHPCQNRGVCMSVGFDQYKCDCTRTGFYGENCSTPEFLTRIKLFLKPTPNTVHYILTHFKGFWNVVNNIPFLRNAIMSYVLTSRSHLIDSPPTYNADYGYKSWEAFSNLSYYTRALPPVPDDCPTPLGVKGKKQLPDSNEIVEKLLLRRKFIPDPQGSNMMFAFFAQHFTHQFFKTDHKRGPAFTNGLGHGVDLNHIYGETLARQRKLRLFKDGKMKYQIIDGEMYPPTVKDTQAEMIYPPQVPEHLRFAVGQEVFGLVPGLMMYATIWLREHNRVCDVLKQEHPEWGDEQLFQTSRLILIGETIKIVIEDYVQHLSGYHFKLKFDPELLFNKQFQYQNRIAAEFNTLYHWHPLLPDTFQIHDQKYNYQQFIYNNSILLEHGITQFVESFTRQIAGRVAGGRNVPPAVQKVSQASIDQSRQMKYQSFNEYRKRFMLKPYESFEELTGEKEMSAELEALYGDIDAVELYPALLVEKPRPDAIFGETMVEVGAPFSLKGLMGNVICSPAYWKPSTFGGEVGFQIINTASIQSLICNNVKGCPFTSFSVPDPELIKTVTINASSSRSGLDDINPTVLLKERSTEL
Procedure: as §1

BV2 microglia cells = test: ROS production (H2DCFDA) in LPS-treated BV2 microglia; format: cell-based; details: 3 μM, LPS 1 μg/mL, 24 h
Source text: Activation of toll-like receptors (TLRs), particularly the TLR4 subtype, is closely associated with the production of reactive oxygen and nitrogen species that contribute to neuronal death in the CNS. In this connection, NADPH oxidase enzymes are the main ones responsible for ROS production induced by NF-κB nuclear translocation. For this reason, we decided to assess the ROS levels of BV2 microglia cells treated with LPS and the effect of our compounds under this toxicity protocol. To this end, the compounds, at different concentrations (3 μM of 3a, 3b, and 3d and 10 μM of 3c) were incubated with 1 μg/mL LPS for 24 h. After this period, ROS production was measured with the fluorescent probe H2DCFDA. Treatment with LPS increased by 1.75-fold the amount of ROS compared with control cells.
Cultures were seeded into flasks containing supplemented medium and kept at 37 °C in a humidified atmosphere of 5% CO2 and 95% air. For assays, BV-2 cells were subcultured in 48-well plates at a seeding density of 1 × 10^5 cells per well. Cells were treated with LPS (Sigma-Aldrich, Madrid, Spain) for 24 or 48 h before confluence in RPMI with 1% FBS.
To measure cellular ROS, we used the molecular probe 2′,7′-dichlorodihydrofluorescein diacetate (H2DCFDA). Glial cells were loaded with 5 µM H2DCFDA as it was previously described (Parada et al., 2015). Fluorescence was measured in a fluorescence microplate reader (FLUOstar Galaxy; BMG Labtech, Offenburg, Germany). Wavelengths of excitation and emission were 485 and 520 nm, respectively. The relative pixel intensity was measured in identical regions with (ImageJ 1.52a software, National Institutes of Health, Bethesda, MD, USA).

Compound | IC50 (ovine COX-1) | IC50 (human COX-2) | inhibition at 50 µM (ovine COX-1; ovine COX-1, 50 µM) | melting point | inhibition at 50 µM (human COX-2) | further results
CCOC(=O)c1c(N)cc(-c2ccccc2)cc1-c1ccccc1 [Compound 1a, ethyl 6-amino-2,4-diphenylbenzoate] | > 50 µM | > 50 µM |  |  |  | 
Nc1cc(-c2ccccc2)cc(-c2ccccc2)c1C(=O)O [Compound 2a, 6-Amino-2,4-diphenylbenzoic acid] |  |  | 32% | 162 to 163 °C | 3% | 
Cc1ccc(-c2cc(N)c(C(=O)O)c(-c3ccccc3)c2)cc1 [Compound 2b, 6-Amino-2-phenyl-4-(4-tolyl)benzoic acid] |  |  | 46% |  | 2% | 
Nc1cc(-c2ccc(Cl)cc2)cc(-c2ccccc2)c1C(=O)O [Compound 2c, 6-Amino-2-phenyl-4-(4-chlorophenyl)benzoic acid] | > 50 µM |  |  | 229 to 230 °C | 4% | 
Nc1cc(-c2ccc(Cl)cc2)cc(-c2ccc(Cl)cc2)c1C(=O)O [Compound 2d, 6-Amino-2,4-di-(4-chlorophenyl)benzoic acid] | > 50 µM |  |  | 178 to 179 °C | 13% | 
COc1ccc(-c2cc(N)c(C(=O)O)c(-c3ccccc3)c2)cc1 [Compound 2e, 6-Amino-2-phenyl-4-(4-methoxyphenyl)benzoic acid] | > 50 µM |  |  |  | 20% | 
Nc1cc(-c2ccc(Br)cc2)cc(-c2ccc(Br)cc2)c1C(=O)O [Compound 2f, 6-Amino-2,4-di-(4-bromophenyl)benzoic acid] |  |  | 8% | 239 to 240 °C | 12% | 
O=C(O)c1c(Nc2ccccc2)cc(-c2ccccc2)cc1-c1ccccc1 [Compound 2g, 6-Phenylamino-2,4-diphenylbenzoic acid] |  |  | 7% |  | 13% | 
Nc1cc(-c2ccc(Cl)cc2)cc(-c2ccc(Cl)cc2)c1 [Compound 3d, 4,4″-Dichloro-5′-amino-m-terphenyl] |  | > 50 µM | 36% |  |  | ROS production induced by LPS (BV2 microglia cells): failed to decrease the levels of ROS
Nc1cc(-c2ccc(Br)cc2)cc(-c2ccc(Br)cc2)c1 [Compound 3f, 4,4″-Dibromo-5′-amino-m-terphenyl] | > 50 µM | > 50 µM |  | 163 to 164 °C |  | 
c1ccc(Nc2cc(-c3ccccc3)cc(-c3ccccc3)c2)cc1 [Compound 3g, 5′-Phenylamino-m-terphenyl] | > 50 µM | > 50 µM |  |  |  | 
O=C(Nc1cc(-c2ccccc2)cc(-c2ccccc2)c1)NC1CCCC1 [Compound 4a, 1-([m-Terphenyl]-5′-yl)-3-cyclopentyl urea] | > 50 µM | > 50 µM |  |  |  | 
Cc1ccc(-c2cc(NC(=O)NC3CCCC3)cc(-c3ccccc3)c2)cc1 [Compound 4b, 1-([4-Methyl-m-terphenyl]-5′-yl)-3-cyclopentyl urea] | > 50 µM | > 50 µM |  | 217 to 218 °C |  | 
O=C(Nc1cc(-c2ccccc2)cc(-c2ccc(Cl)cc2)c1)NC1CCCC1 [Compound 4c, 1-([4-Chloro-m-terphenyl]-5′-yl)-3-cyclopentylurea] | > 50 µM | > 50 µM |  | 203 to 204 °C |  | 
O=C(Nc1cc(-c2ccc(Cl)cc2)cc(-c2ccc(Cl)cc2)c1)NC1CCCC1 [Compound 4d, 1-([4,4″-Dichloro-m-terphenyl]-5′-yl)-3-cyclopentylurea] | > 50 µM | > 50 µM |  | 239 to 240 °C |  | 
COc1ccc(-c2cc(NC(=O)NC3CCCC3)cc(-c3ccccc3)c2)cc1 [Compound 4e, 1-([4-Methoxy-m-terphenyl]-5′-yl)-3-cyclopentylurea] | > 50 µM | > 50 µM |  | 208 to 209 °C |  | 
O=C(Nc1cc(-c2ccc(Br)cc2)cc(-c2ccc(Br)cc2)c1)NC1CCCC1 [Compound 4f, 1-([4,4″-Dibromo-m-terphenyl]-5′-yl)-3-cyclopentylurea] |  |  | 10% | 222 to 223 °C | 30% | COX-1 selectivity (in words) (ovine COX-1; ovine COX-1 vs human COX-2): did not show COX-1 selectivity
CCOC(=O)c1c(NC(=O)NC2CCCCC2)cc(-c2ccccc2)cc1-c1ccc(OC)cc1 [Compound 5, Ethyl 6-(3′-cyclohexylureido)-2-(4-methoxyphenyl)-4-phenylbenzoate] | > 50 µM | > 50 µM |  |  |  | 
COc1ccc(-c2noc(CC(=O)O)c2-c2ccc(OC)cc2)cc1 [Mofezolac, mofezolac, reference compound] |  |  | 100% |  | 42% | 
ethyl 6-amino-2-(4-methoxyphenyl)-2-phenylbenzoate [Compound 1e] |  | > 50 µM |  |  |  | oCOX-1; % Inhibition at 50 µM (ovine COX-1; ovine COX-1, 50 µM): NM (9) %
